In patent US8471005B2 (Cephalon, Inc., priority 2008, dated 2013):
Read-outs that look alike come from different tables or passages of the source.

Experiments:
[1] = target: T1, ALK (Homo sapiens, UniProt Q9UM73); test: ALK Kinase Assay (ELISA/TRF, PLC-γ substrate); type: biochemical; conditions: read-out: ALK Potency
T1 construct: host or cells: baculovirus expression system
Procedure, shortened: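 PLC-γ coat 10 μg/mL in TBS; ALK 30 ng/ml added to start; 37° C, 15 min; Eu-N1 PT66 antibody detection (TRF). IC50: % inhibition vs log10 [cpd], variable-slope sigmoidal fit.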

[2] = target: T2, JAK2 (Homo sapiens, UniProt O60674); test: Recombinant Human JAK2 Kinase Assay (TRF); type: biochemical; conditions: read-out: JAK2 Potency
T2 construct: host or cells: baculovirus expression system
T2 sequence (O60674 whole entry): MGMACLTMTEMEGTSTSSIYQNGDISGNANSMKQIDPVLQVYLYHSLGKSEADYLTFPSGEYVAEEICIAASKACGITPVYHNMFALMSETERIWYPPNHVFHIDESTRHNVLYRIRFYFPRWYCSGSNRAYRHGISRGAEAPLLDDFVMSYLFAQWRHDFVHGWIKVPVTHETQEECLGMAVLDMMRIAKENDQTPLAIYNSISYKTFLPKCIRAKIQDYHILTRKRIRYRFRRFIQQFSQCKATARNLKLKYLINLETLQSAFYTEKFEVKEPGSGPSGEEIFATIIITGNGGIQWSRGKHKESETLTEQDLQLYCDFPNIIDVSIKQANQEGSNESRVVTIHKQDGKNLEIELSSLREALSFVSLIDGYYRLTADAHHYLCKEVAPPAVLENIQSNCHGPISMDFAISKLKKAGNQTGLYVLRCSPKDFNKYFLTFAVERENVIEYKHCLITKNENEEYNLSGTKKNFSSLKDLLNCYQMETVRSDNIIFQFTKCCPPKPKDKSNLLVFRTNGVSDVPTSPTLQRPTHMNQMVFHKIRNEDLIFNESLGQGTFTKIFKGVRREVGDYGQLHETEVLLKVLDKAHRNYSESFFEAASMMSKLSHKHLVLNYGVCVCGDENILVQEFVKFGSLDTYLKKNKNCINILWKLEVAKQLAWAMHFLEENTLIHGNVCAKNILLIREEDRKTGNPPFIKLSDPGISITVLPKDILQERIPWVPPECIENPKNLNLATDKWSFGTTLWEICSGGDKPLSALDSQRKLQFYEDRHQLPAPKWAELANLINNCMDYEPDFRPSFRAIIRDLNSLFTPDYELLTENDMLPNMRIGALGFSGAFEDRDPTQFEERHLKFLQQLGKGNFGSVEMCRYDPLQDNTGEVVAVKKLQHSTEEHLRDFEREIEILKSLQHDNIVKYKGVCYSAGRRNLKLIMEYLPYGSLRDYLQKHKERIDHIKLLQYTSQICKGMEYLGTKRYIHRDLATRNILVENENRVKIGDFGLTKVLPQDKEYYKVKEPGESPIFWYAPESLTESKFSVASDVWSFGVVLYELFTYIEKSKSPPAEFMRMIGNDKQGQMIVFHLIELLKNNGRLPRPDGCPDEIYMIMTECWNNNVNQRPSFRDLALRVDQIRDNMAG
Procedure, shortened: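 TRF read-out: Eu-N1 PY100 anti-phosphotyrosine antibody detects product. Enzyme is baculovirus-expressed JAK2 at 15 ng/ml; substrate is a biotinyl 15-mer peptide bound to Neutravidin-coated wells. Buffer 20 mM HEPES pH 7.2, 0.2 μM ATP, 1 mM MnCl2, 0.1% BSA, 2.5% DMSO final; 20 min, RT.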

[3] = ALK kinase inhibition, 1 μM ATP
[4] = JAK2 kinase inhibition, 0.2 μM ATP

T1 sequence (Q9UM73 19-1620): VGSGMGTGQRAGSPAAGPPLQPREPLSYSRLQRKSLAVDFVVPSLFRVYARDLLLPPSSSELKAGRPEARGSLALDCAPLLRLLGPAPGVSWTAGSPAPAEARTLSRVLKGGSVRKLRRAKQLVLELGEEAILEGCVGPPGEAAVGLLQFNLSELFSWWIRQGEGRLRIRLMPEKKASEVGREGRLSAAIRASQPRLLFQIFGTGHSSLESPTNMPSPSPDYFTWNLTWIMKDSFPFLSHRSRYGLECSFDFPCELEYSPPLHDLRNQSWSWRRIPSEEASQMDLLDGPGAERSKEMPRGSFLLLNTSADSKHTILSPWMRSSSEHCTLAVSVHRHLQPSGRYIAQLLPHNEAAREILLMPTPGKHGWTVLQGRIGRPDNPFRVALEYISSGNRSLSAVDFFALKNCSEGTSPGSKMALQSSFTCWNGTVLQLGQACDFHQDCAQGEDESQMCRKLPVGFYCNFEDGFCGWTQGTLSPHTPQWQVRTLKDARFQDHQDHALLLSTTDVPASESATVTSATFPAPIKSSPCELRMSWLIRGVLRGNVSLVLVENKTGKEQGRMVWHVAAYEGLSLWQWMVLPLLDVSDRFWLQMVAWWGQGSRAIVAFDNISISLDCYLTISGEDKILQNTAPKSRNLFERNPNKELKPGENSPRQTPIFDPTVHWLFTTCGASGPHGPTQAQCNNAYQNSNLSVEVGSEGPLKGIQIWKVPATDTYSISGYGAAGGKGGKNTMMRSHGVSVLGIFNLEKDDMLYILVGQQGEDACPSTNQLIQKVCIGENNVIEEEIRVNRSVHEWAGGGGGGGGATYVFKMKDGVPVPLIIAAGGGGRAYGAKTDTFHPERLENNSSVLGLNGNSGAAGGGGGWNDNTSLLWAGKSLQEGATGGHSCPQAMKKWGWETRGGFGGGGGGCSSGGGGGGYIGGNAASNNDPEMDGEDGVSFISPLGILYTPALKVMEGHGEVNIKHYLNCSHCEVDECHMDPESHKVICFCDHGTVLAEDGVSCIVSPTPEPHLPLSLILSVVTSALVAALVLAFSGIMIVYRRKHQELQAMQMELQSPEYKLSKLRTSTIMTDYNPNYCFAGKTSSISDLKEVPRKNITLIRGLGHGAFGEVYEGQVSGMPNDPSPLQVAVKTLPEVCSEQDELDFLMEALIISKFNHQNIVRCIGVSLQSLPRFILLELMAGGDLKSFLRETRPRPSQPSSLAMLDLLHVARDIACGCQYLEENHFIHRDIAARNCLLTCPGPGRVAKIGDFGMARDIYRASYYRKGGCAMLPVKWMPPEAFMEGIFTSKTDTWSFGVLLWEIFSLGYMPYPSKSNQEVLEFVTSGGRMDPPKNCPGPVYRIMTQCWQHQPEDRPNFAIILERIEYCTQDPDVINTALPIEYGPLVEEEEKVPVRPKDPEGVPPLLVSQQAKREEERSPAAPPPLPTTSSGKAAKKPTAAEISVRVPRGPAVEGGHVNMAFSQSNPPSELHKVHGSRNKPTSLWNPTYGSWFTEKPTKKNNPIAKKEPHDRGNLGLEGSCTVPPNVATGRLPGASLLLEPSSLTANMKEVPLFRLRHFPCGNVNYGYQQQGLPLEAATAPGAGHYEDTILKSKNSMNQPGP

SMILES	IC50 [1, 3] [nM]	IC50 [2, 4] [nM]	IC50 ([1]; ALK Kinase Inhibition) [nM]	IC50 ([2]; JAK2 Kinase Inhibition) [nM]
COc1cc(C2CCCN(C)C2)ccc1Nc1ncc2ccc(-c3ccccc3N(C)S(C)(=O)=O)n2n1 (stereo not shown) [Example 806, N-(2-{2-[2-Methoxy-4-(1-methyl-piperidin-3-yl)-phenylamino]-pyrrolo[2,1-f][1,2,4]triazin-7-yl}-phenyl)-N-methyl-methanesulfonamide]	< 100	100 to 1000	–	–
COc1ccc(-c2ccc3cnc(Nc4ccc5ncn(C)c5c4)nn23)cn1 [Example 1307, [7-(6-Methoxy-pyridin-3-yl)-pyrrolo[2,1-f][1,2,4]triazin-2-yl]-(3-methyl-3H-benzimidazol-5-yl)-amine]	1000 to 10000	< 100	–	–
CC(C)CCn1cc(-c2ccc3cnc(Nc4cccc(N5CCN(C)CC5)c4)nn23)cn1 [Example 971, {7-[1-(3-Methyl-butyl)-1H-pyrazol-4-yl]-pyrrolo[2,1-f][1,2,4]triazin-2-yl}-[3-(4-methyl-piperazin-1-yl)-phenyl]-amine]	1000 to 10000	< 100	–	–
CN1C(=O)COc2cc(Nc3ncc4ccc(-c5cccnc5)n4n3)ccc21 [Example 649, 4-Methyl-7-(7-pyridin-3-yl-pyrrolo[2,1-f][1,2,4]triazin-2-ylamino)-4H-benzo[1,4]oxazin-3-one]	1000 to 10000	< 100	–	–
COc1cc(Nc2ncc3ccc(-c4cccc(S(=O)(=O)NC(C)(C)C)c4)n3n2)ccc1C1CCN(CC(N)=O)CC1 [Example 924, 2-(4-{4-[7-(3-tert-Butylsulfamoyl-phenyl)-pyrrolo[2,1-f][1,2,4]triazin-2-ylamino]-2-methoxy-phenyl}-piperidin-1-yl)-acetamide]	< 100	< 100	–	–
Cc1cc(-c2ccc(S(C)(=O)=O)cc2)n2nc(Nc3ccc(N4CCOCC4)cc3)ncc12 [Example 107, [7-(4-Methanesulfonyl-phenyl)-5-methyl-pyrrolo[2,1-f][1,2,4]triazin-2-yl]-(4-morpholin-4-yl-phenyl)-amine]	–	–	100 to 1000	< 100
COCCN(c1ccccc1-c1ccc2cnc(Nc3ccc(N4CCC(N5CCOCC5)CC4)cc3OC)nn12)S(C)(=O)=O [Example 1462, N-(2-Methoxy-ethyl)-N-(2-{2-[2-methoxy-4-(4-morpholin-4-yl-piperidin-1-yl)-phenylamino]-pyrrolo[2,1-f][1,2,4]triazin-7-yl}-phenyl)-methanesulfonamide]	–	–	100 to 1000	100 to 1000
CN1Cc2ccc(Nc3ncc4ccc(-c5cccc(S(=O)(=O)NC(C)(C)C)c5)n4n3)cc2C1 [Example 936, N-tert-Butyl-3-[2-(2-methyl-2,3-dihydro-1H-isoindol-5-ylamino)-pyrrolo[2,1-f][1,2,4]triazin-7-yl]-benzenesulfonamide]	100 to 1000	< 100	–	–
CN1CCN(c2ccc(Nc3ncc4ccc(-c5ccccc5[S+](C)[O-])n4n3)cc2)CC1 (stereo not shown) [Example 404, [7-(2-Methanesulfinyl-phenyl)-pyrrolo[2,1-f][1,2,4]triazin-2-yl]-[4-(4-methyl-piperazin-1-yl)-phenyl]-amine]	–	–	100 to 1000	< 100
CN(c1ccccc1-c1ccc2cnc(Nc3ccc(N4CCN(CC(N)=O)CC4)c(F)c3)nn12)S(C)(=O)=O [Example 1422, 2-[4-(2-Fluoro-4-{7-[2-(methanesulfonyl-methyl-amino)-phenyl]-pyrrolo[2,1-f][1,2,4]triazin-2-ylamino}-phenyl)-piperazin-1-yl]-acetamide]	–	–	100 to 1000	< 100
Cc1cc(Nc2ncc3ccc(-c4ccc(S(C)(=O)=O)cc4)n3n2)ccc1C1CCN(CC(N)=O)CC1 [Example 949, 2-(4-{4-[7-(4-Methanesulfonyl-phenyl)-pyrrolo[2,1-f][1,2,4]triazin-2-ylamino]-2-methyl-phenyl}-piperidin-1-yl)-acetamide]	< 100	< 100	–	–
COc1ccc(-c2ccc3cnc(Nc4ccc(C(F)(F)C(=O)N5CCN(C)CC5)cc4)nn23)cn1 [Example 1516, 2,2-Difluoro-2-{4-[7-(6-methoxy-pyridin-3-yl)-pyrrolo[2,1-f][1,2,4]triazin-2-ylamino]-phenyl}-1-(4-methyl-piperazin-1-yl)-ethanone]	–	–	1000 to 10000	< 100
COc1cc(N2CCN(C)CC2)ccc1Nc1ncc2ccc(-c3ccc(S(C)(=O)=O)cc3)n2n1 [Example 62, [7-(4-Methanesulfonyl-phenyl)-pyrrolo[2,1-f][1,2,4]triazin-2-yl]-[2-methoxy-4-(4-methyl-piperazin-1-yl)-phenyl]-amine]	–	–	100 to 1000	< 100
COc1cc2c(cc1Nc1ncc3ccc(-c4ccccc4N(C)S(C)(=O)=O)n3n1)CCCC(N1CCOCC1)C2 (stereo not shown) [Example 993, N-{2-[2-(3-Methoxy-6-morpholin-4-yl-6,7,8,9-tetrahydro-5H-benzocyclohepten-2-ylamino)-pyrrolo[2,1-f][1,2,4]triazin-7-yl]-phenyl}-N-methyl-methanesulfonamide]	< 100	100 to 1000	–	–
C[C@H](O)CN1CCN(c2cccc(Nc3ncc4ccc(-c5cccc(Cl)c5)n4n3)c2)CC1 [Example 212, (S)-1-(4-{3-[7-(3-Chloro-phenyl)-pyrrolo[2,1-f][1,2,4]triazin-2-ylamino]-phenyl}-piperazin-1-yl)-propan-2-ol]	–	–	< 100	< 100
COc1ccc2c(c1)cc1cnc(Nc3ccc(N4CCOCC4)cc3OC)nn12 [Example 269, (2-Methoxy-4-morpholin-4-yl-phenyl)-(7-methoxy-[1,2,4]triazino[1,6-a]indol-2-yl)-amine]	–	–	1000 to 10000	1000 to 10000
COc1cc(N2CCC(N(C)C)CC2)ccc1Nc1ncc2ccc(-c3ccccc3OC)n2n1 [Example 476, [4-(4-Dimethylamino-piperidin-1-yl)-2-methoxy-phenyl]-[7-(2-methoxy-phenyl)-pyrrolo[2,1-f][1,2,4]triazin-2-yl]-amine]	< 100	< 100	–	–
COc1ccncc1-c1ccc2cnc(Nc3ccc(N4CCOCC4)cc3)nn12 [Example 1211, [7-(4-Methoxy-pyridin-3-yl)-pyrrolo[2,1-f][1,2,4]triazin-2-yl]-(4-morpholin-4-yl-phenyl)-amine]	1000 to 10000	< 100	–	–
CN1CCN(C)C(c2cccc(Nc3ncc4ccc(-c5ccccc5N(C)S(C)(=O)=O)n4n3)c2)C1=O (stereo not shown) [Example 1083, N-(2-{2-[3-(1,4-Dimethyl-3-oxo-piperazin-2-yl)-phenylamino]-pyrrolo[2,1-f][1,2,4]triazin-7-yl}-phenyl)-N-methyl-methanesulfonamide]	1000 to 10000	< 100	–	–
CC(=O)Nc1cc(Nc2ncc3ccc(-c4cnn(C)c4)n3n2)ccc1Cl [Example 962, N-{2-Chloro-5-[7-(1-methyl-1H-pyrazol-4-yl)pyrrolo[2,1f][1,2,4]triazin-2-ylamino]-phenyl}-acetamide]	1000 to 10000	< 100	–	–
COc1ccc(-c2ccc3cnc(Nc4ccc(Cl)c(CN5CCOCC5)c4)nn23)cn1 [Example 973, (4-Chloro-3-morpholin-4-ylmethyl-phenyl)-[7-(6-methoxy-pyridin-3-yl)-pyrrolo[2,1-f][1,2,4]triazin-2-yl]-amine]	> 10000	< 100	–	–
COc1ccccc1-c1ccc2cnc(Nc3ccc4c(c3)CC(=O)N4C)nn12 [Example 359, 5-[7-(2-Methoxy-phenyl)-pyrrolo[2,1-f][1,2,4]triazin-2-ylamino]-1-methyl-1,3-dihydro-indol-2-one]	–	–	100 to 1000	< 100
CC(C)(C)NS(=O)(=O)c1cccc(-c2ccc3cnc(Nc4ccc5nc(C(C)(C)C)[nH]c5c4)nn23)c1 [Example 1330, N-tert-Butyl-3-[2-(2-tert-butyl-3H-benzimidazol-5-ylamino)-pyrrolo[2,1-f][1,2,4]triazin-7-yl]-benzenesulfonamide]	1000 to 10000	< 100	–	–
CC(C)(C)NS(=O)(=O)c1cccc(-c2ccc3cnc(Nc4ccc(-c5cccnc5)cc4)nn23)c1 [Example 1085, N-tert-Butyl-3-[2-(4-pyridin-3-yl-phenylamino)-pyrrolo[2,1-f][1,2,4]triazin-7-yl]-benzenesulfonamide]	> 10000	< 100	–	–
COc1ccc(C(=O)N2CCN(C)CC2)cc1Nc1ncc2ccc(-c3ccccc3OC)n2n1 [Example 494, {4-Methoxy-3-[7-(2-methoxy-phenyl)-pyrrolo[2,1-f][1,2,4]triazin-2-ylamino]-phenyl}-(4-methyl-piperazin-1-yl)-methanone]	1000 to 10000	> 10000	–	–
COc1cc(N2CCN(C3CCN(C)CC3)CC2)ccc1Nc1ncc2ccc(-c3ccccc3OC)n2n1 [Example 231, {2-Methoxy-4-[4-(1-methyl-piperidin-4-yl)-piperazin-1-yl]-phenyl}-[7-(2-methoxy-phenyl)-pyrrolo[2,1-f][1,2,4]triazin-2-yl]-amine]	–	–	< 100	< 100
Clc1cccc(-c2ccc3cnc(-n4cnc5cnccc54)nn23)c1 [Example 324, 1-[7-(3-Chloro-phenyl)-pyrrolo[2,1-f][1,2,4]triazin-2-yl]-1H-imidazo[4,5-c]pyridine]	–	–	1000 to 10000	1000 to 10000
Cc1nc2ccc(Nc3ncc4ccc(-c5cccc(S(=O)(=O)NC(C)(C)C)c5)n4n3)cc2s1 [Example 572, N-tert-Butyl-3-[2-(2-methyl-benzothiazol-6-ylamino)-pyrrolo[2,1-f][1,2,4]triazin-7-yl]-benzenesulfonamide]	> 10000	< 100	–	–
COc1ccc(-c2ccc3cnc(Nc4ccc5c(c4)CC(=O)N5C)nn23)cn1 [Example 384, 5-[7-(6-Methoxy-pyridin-3-yl)-pyrrolo[2,1-f][1,2,4]triazin-2-ylamino]-1-methyl-1,3-dihydro-indol-2-one]	–	–	1000 to 10000	< 100
